Experimental data from patent US20250009742A1 (priority 2021, published 2025).
Like-named read-outs stand apart in the source and are kept apart here.

Columns and labels:
intracellular HBV DNA = test: Real-time PCR for intracellular HBV DNA in HepAD38 cells; format: cell-based; settings: 65 hours treatment
Protein = Protein (Hepatitis B virus genotype D subtype ayw, UniProt P03146); test: Protein inhibition rate / EC50 (Table 1, no method described); format: biochemical
HepAD38 cells = test: Cell viability assay (EZ-Cytox), cytotoxicity; format: cell-based; settings: 65 hours
Method: (§1) HepAD38 cells were cultured for 2 days in Dulbecco's Modified Eagle's medium (Welgene, LM001-05) supplemented with 10% FBS without tetracycline. […] After 65 hours of treatment, viability was measured using EZ-Cytox cell viability assay kit (Daeil Lab Service) according to the manufacturer's instructions. The absorbance was measured at 450 nm using a spectrophotometer (Spark, Tecan).

[1] = Cell viability assay (EZ-Cytox), cytotoxicity; format: cell-based; settings: human, HepAD38 cells; for viability at 65 h, 100 µM: read-out: Cytotoxicity % Livability (@100 μM)
Method: as §1

[2] = Hepatitis B virus, HePAD38, 65 h

Chain of Protein (P03146 whole entry): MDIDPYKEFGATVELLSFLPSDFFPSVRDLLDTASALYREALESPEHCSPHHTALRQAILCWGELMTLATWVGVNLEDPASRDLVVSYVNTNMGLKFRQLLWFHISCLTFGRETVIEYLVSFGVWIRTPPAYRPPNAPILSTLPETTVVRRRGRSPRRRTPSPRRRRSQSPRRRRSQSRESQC

| Molecule | IC50 (intracellular HBV DNA; read-out: IC50) [µM] | EC50 (Protein) [µM] | Protein % inhibition rate (@30 μM) (Protein; @30 μM) [%] | CC50 (HepAD38 cells) [µM] | Cytotoxicity % Livability (@100 μM) (HepAD38 cells) [%] | IC50 (intracellular HBV DNA) [µM] | IC50 (intracellular HBV DNA; [2]) [µM] | CC50 at 65 h [1] [µM] | inhibition at 30 µM (Protein) [%] | viability at 65 h, 100 µM [1] [%] |
| --- | --- | --- | --- | --- | --- | --- | --- | --- | --- | --- |
| 1-((4-bromo-1H-pyrazol-3-yl)methyl)-3-(3-chloro-4-fluorophenyl)-1-(4-methoxyphenyl)urea [Example 61] | 0.502 | 4.4 | 81.8 | 98.8 | 40.8 |  |  |  |  |  |
| COc1ncc(N(Cc2n[nH]c(C(F)F)c2Br)C(=O)Nc2ccc(F)c(Cl)c2)cn1 [Example 81, 1-((4-bromo-5-(difluoromethyl)-1H-pyrazol-3-yl)methyl)-3-(3-chloro-4-fluorophenyl)-1-(2-methoxypyrimidin-5-yl)urea] |  |  |  | > 100 | 76.0 | 0.0145 |  |  |  |  |
| COc1ncc(N(Cc2n[nH]c(C(F)F)c2Br)C(=O)Nc2ccc(F)c(Cl)c2)cn1 [Example 98, 1-((4-bromo-5-(difluoromethyl)-1H-pyrazol-3-yl)methyl)-3-(3-chloro-4-fluorophenyl)-1-(2-methoxypyrimidin-5-yl)urea] |  |  |  |  | 30.1 |  | 0.018 | > 66 |  |  |
| COc1ccc(N(Cc2n[nH]c3c2CC(C)(C)CC3)C(=O)Nc2ccc(F)c(Cl)c2)cn1 [Example 47, 3-(3-chloro-4-fluorophenyl)-1-((5,5-dimethyl-4,5,6,7-tetrahydro-1H-indazol-3-yl)methyl)-1-(6-methoxypyridin-3-yl)urea] |  | 9.6 |  |  |  |  | 0.99 | > 100 | 95.3 | 50.7 |
| COc1ccc(N(Cc2cc[nH]n2)C(=O)Nc2ccc(F)c(Cl)c2)cc1 [Example 34, 1-((1H-pyrazol-3-yl)methyl)-3-(3-chloro-4-fluorophenyl)-1-(4-methoxyphenyl)urea] |  |  |  |  |  |  | > 1.1 |  | 55.2 | 92.9 |
| COc1ccc(N(Cc2n[nH]cc2C)C(=O)Nc2ccc(F)c(Cl)c2)cn1 [Example 56, 3-(3-chloro-4-fluorophenyl)-1-(6-methoxypyridin-3-yl)-1-((4-methyl-1H-pyrazol-3-yl)methyl)urea] |  | 6.6 |  |  |  |  | 0.4 | > 100 | 86.4 | 98.2 |
| COc1ccc(N(Cc2ccn(C)n2)C(=O)Nc2ccc(F)c(Cl)c2)cc1 [Example 35, 3-(3-chloro-4-fluorophenyl)-1-(4-methoxyphenyl)-1-((1-methyl-1H-pyrazol-3-yl)methyl)urea] |  |  |  |  |  |  | > 1.1 |  | 33.7 | 90.5 |
| 3-(3-chloro-4-fluorophenyl)-1-((1-(hydroxymethyl)-5-(trifluoromethyl)-1H-pyrazol-3-yl)methyl)-1-(6-methoxypyridin-3-yl)urea [Example 79] | 0.019 |  |  |  | 18.5 |  |  |  |  |  |
| COc1ccc(N(Cc2n[nH]c3c2CN(C(C)=O)CC3)C(=O)Nc2ccc(F)c(Cl)c2)cc1 [Example 33, 1-((5-acetyl-4,5,6,7-tetrahydro-1H-pyrazolo[4,3-c]pyridin-3-yl)methyl)-3-(3-chloro-4-fluorophenyl)-1-(4-methoxyphenyl)urea] |  |  |  |  |  |  | > 1.1 |  | 77.8 | 96 |
| COC(=O)c1ccc(N(Cc2n[nH]c3c2CCCC3)C(=O)Nc2ccc(F)c(Cl)c2)cc1 [Example 31, methyl 4-(3-(3-chloro-4-fluorophenyl)-1-((4,5,6,7-tetrahydro-1H-indazol-3-yl)methyl)ureido)benzoate] |  | 3.3 |  |  |  |  | 0.41 | > 100 | 90.4 | 91.2 |
| COc1ccc(N(Cc2n[nH]c3c2CCC3C)C(=O)Nc2ccc(F)c(Cl)c2)cn1 (stereo not shown) [Example 59, 3-(3-chloro-4-fluorophenyl)-1-(6-methoxypyridin-3-yl)-1-((6-methyl-1,4,5,6-tetrahydrocyclopenta[c]pyrazol-3-yl)methyl)urea] |  | 4 |  |  |  |  | 0.013 | > 100 | 94.9 | 91.2 |
| COc1ccc(N(Cc2n[nH]c3c2C2CCC3C2)C(=O)Nc2ccc(F)c(Cl)c2)cn1 (stereo not shown) [Example 51, 3-(3-chloro-4-fluorophenyl)-1-(6-methoxypyridin-3-yl)-1-((4,5,6,7-tetrahydro-1H-4,7-methanoindazol-3-yl)methyl)urea] |  | 3.4 |  |  |  |  | 0.035 | > 50 | 87.1 | 36.7 |
| COc1ccc(N(Cc2n[nH]c3c2CCCC3)C(=O)Nc2ccc(F)c(Cl)c2)cc1 [Example 32, 3-(3-chloro-4-fluorophenyl)-1-(4-methoxyphenyl)-1-((4,5,6,7-tetrahydro-1H-indazol-3-yl)methyl)urea] |  | 9.4 |  |  |  |  | 0.0099 | 81.4 | 5 | 4.1 |
